Measured values taken from patent US4416885A, “Use of isopropylaminopyrimidine in the chemotherapy of muscular dystrophy, myopathy and myotonia” (priority 1982, dated 1983).

Tests used:
Assay type in all cases: in vivo, chicken
[1] = system: dystrophic New Hampshire chickens, line 413; test: Wing apposition (WA) measurements; settings: oral 600 mg/Kg daily
Protocol: (§1) The compound IAPP was tested on dystrophic New Hampshire chickens, line 413, and Imperial College (London, England) sub-line of the original Davis, University of California strain. The chickens are homozygous for muscular dystrophy, the disease appearing with 100% incidence.
This can be defined as the minimum separation in cm to which the two wing tips can be passively raised, providing a measure of the characteristic loss is flexibility of the wing muscle-tendon system. The test is performed once weekly. In dystrophic birds, WA changes after the first three weeks of life from 0 cm (wings raised and touching) to about 18 cm at 3 months (wings stiff and can barely be raised). The normal controls maintain a score of 0 cm throughout. […]
(§2) Finally, oral therapy with IAPP was undertaken at gradually increasing dosages up to 1 g/Kg/day. The parameters (physical, biochemical and histological) measured previously were again used to test the efficacy of the drug; five different dosages were used orally, each being given for 30-60 days, daily (Tables VII-XI). A total of 75 animals were treated in the current study with IAPP and 70 control animals were used.

[2] = system: dystrophic New Hampshire chickens, line 413; test: Flip test (flip number FN, out of five attempts)
Protocol: as §1
The animal is placed on its back in the supine position. The number of times it is able to rise, out of five attempts, is known as the flip number (FN). The normal chicken invariably scores 5 (out of 5 attempts), whereas in an untreated dystrophic chicken, the number declines to zero in 6-8 weeks. The test is performed once every […], seven days; more frequent assessment introduces an exercise factor and is not recommended.
(§3) The drug was administered daily in water, injected intra-peritoneally, the amount being adjusted on a weekly basis according to the animal's weight.
as §2

[3] = system: dystrophic New Hampshire chickens, line 413; test: Toxicity (weight change, other symptoms) in dystrophic chickens
Protocol: Weight measurements are taken weekly, weight loss, diarrhea or any other symptoms are noted. No drugs have yet been described for dystrophy with a beneficial effect without an accompanying weight loss.
as §3

For `CC(C)Nc1ncccn1.O=P(O)(O)O` [IAPP, 2-isopropylaminopyrimidine orthophosphate], the “WA, treated” value ([1]; day 35 ex ovo, control 2.8) was 1.1 cm, the “WA, treated” value ([1]; day 45 ex ovo, control 5.5) was 3.5 cm and the “WA, treated” value ([1]; day 50 ex ovo, control 6.2) was 5.5 cm. The “FN (out of 5 attempts), treated” value ([2]; 200 mg/Kg i.p. daily for 30 days, day 28 ex ovo, control 4.9) was 5.0, the “FN (out of 5 attempts), treated” value ([2]; 200 mg/Kg i.p. daily for 30 days, day 45 ex ovo, control 3.5) was 3.3 and the “FN (out of 5 attempts), treated” value ([2]; 200 mg/Kg i.p. daily for 30 days, day 84 ex ovo, control 0.7) was 1.4. For the same molecule, the Mean flip number ([2]; 200 mg/Kg i.p., further 56 days after injections ceased) was “slightly improved”, the “FN (out of 5 attempts), treated” value ([2]; 300 mg/Kg i.p. daily for 30 days, day 28 ex ovo, control 4.9) was 4.5 and the “FN (out of 5 attempts), treated” value ([2]; 300 mg/Kg i.p. daily for 30 days, day 45 ex ovo, control 3.5) was 2.3. The “FN (out of 5 attempts), treated” value ([2]; 300 mg/Kg i.p. daily for 30 days, day 84 ex ovo, control 0.7) was 0.1, the “FN (out of 5 attempts), treated” value ([2]; 300 mg/Kg i.p. three times weekly for 30 days, day 28 ex ovo, control 4.9) was 4.5 and the “FN (out of 5 attempts), treated” value ([2]; 300 mg/Kg i.p. three times weekly for 30 days, day 45 ex ovo, control 3.5) was 2.7. The “FN (out of 5 attempts), treated” value ([2]; 300 mg/Kg i.p. three times weekly for 30 days, day 84 ex ovo, control 0.7) was 0.6, the “FN Treated (out of 5 attempts)” value ([2]; Exp. 2, 40 mg/Kg i.p. daily, day 7-13, control 4.5) was 4.9 and the “FN Treated (out of 5 attempts)” value ([2]; Exp. 2, 40 mg/Kg i.p. daily, day 14-20, control 4.8) was 5.0. For the same molecule, the “FN Treated (out of 5 attempts)” value ([2]; Exp. 2, 40 mg/Kg i.p. daily, day 35-41, control 2.8) was 5.0, the “FN Treated (out of 5 attempts)” value ([2]; Exp. 2, 40 mg/Kg i.p. daily, day 49-55, control 2.0) was 4.5 and the “FN Treated (out of 5 attempts)” value ([2]; Exp. 2, 40 mg/Kg i.p. daily, day 56-62, control 1.4) was 3.8. The “FN Treated (out of 5 attempts)” value ([2]; Exp. 2, 40 mg/Kg i.p. daily, day 63-71, control 0.9) was 2.3, the “FN Treated (out of 5 attempts)” value ([2]; Exp. 3, 70 mg/Kg i.p. daily, day 14-20, control 5) was 5 and the “FN Treated (out of 5 attempts)” value ([2]; Exp. 3, 70 mg/Kg i.p. daily, day 21-27, control 4.8) was 5. For the same molecule, the “FN Treated (out of 5 attempts)” value ([2]; Exp. 3, 70 mg/Kg i.p. daily, day 28-34, control 5) was 5, the “FN (out of 5 attempts), treated” value ([2]; Table VII, oral 200 mg/Kg, 60 days, day 28 ex ovo, control 5.0) was 4.1 and the “FN (out of 5 attempts), treated” value ([2]; Table VII, oral 200 mg/Kg, 60 days, day 35 ex ovo, control 4.4) was 3.6. For the same molecule, the “FN (out of 5 attempts), treated” value ([2]; Table VII, oral 200 mg/Kg, 60 days, day 45 ex ovo, control 3.2) was 2.4, the “FN (out of 5 attempts), treated” value ([2]; Table VII, oral 200 mg/Kg, 60 days, day 60 ex ovo, control 2.8) was 1.8 and the “FN (out of 5 attempts), treated” value ([2]; oral 300 mg/Kg daily, day 28 ex ovo, control 4.8) was 4.7. The “FN (out of 5 attempts), treated” value ([2]; oral 300 mg/Kg daily, day 35 ex ovo, control 4.7) was 4.4, the “FN (out of 5 attempts), treated” value ([2]; oral 450 mg/Kg daily for 45 days, day 28 ex ovo, control 5.0) was 5.0 and the “FN (out of 5 attempts), treated” value ([2]; oral 450 mg/Kg daily for 45 days, day 35 ex ovo, control 3.6) was 4.8. The “FN (out of 5 attempts), treated” value ([2]; oral 450 mg/Kg daily for 45 days, day 45 ex ovo, control 1.7) was 2, the “FN (out of 5 attempts), treated” value ([2]; oral 450 mg/Kg daily for 45 days, day 50 ex ovo, control 1.4) was 1 and the “FN (out of 5 attempts), treated” value ([2]; oral 600 mg/Kg daily, day 28 ex ovo, control 5.0) was 5.0. The “FN (out of 5 attempts), treated” value ([2]; oral 600 mg/Kg daily, day 35 ex ovo, control 3.6) was 4.3, the “FN (out of 5 attempts), treated” value ([2]; oral 600 mg/Kg daily, day 45 ex ovo, control 1.7) was 2.7 and the “FN (out of 5 attempts), treated” value ([2]; oral 600 mg/Kg daily, day 50 ex ovo, control 1.4) was 2.3. For the same molecule, the “FN (out of 5 attempts), treated” value ([2]; oral 1 g/Kg daily, day 28 ex ovo, control 1.7) was 3.5, the “Birds able to rise from supine 5 times out of 5 attempts” value ([2]; oral 1 g/Kg daily, first four weeks, dystrophic controls 20%) was “Fifty” and the “Weight loss (after 30 days' treatment)” value ([3]; 200 mg/Kg i.p. daily, level at which it became significant) was “twenty”. For the same molecule, the “% Weight Change vs untreated dystrophic controls” value (from here on “% Weight Change”) ([3]; Exp. 2, 40 mg/Kg i.p. daily, day 7-13) was -0.04%, the “% Weight Change” value ([3]; Exp. 2, 40 mg/Kg i.p. daily, day 14-20) was -0.07% and the “% Weight Change” value ([3]; Exp. 2, 40 mg/Kg i.p. daily, day 21-27) was -0.07%. For the same molecule, the “% Weight Change” value ([3]; Exp. 2, 40 mg/Kg i.p. daily, day 28-34) was -0.15%, the “% Weight Change” value ([3]; Exp. 2, 40 mg/Kg i.p. daily, day 35-41) was -0.08% and the “% Weight Change” value ([3]; Exp. 2, 40 mg/Kg i.p. daily, day 42-48) was -0.04%. The “% Weight Change” value ([3]; Exp. 2, 40 mg/Kg i.p. daily, day 49-55) was -0.04%, the “% Weight Change” value ([3]; Exp. 2, 40 mg/Kg i.p. daily, day 56-62) was -0.05% and the “% Weight Change” value ([3]; Exp. 2, 40 mg/Kg i.p. daily, day 63-71) was -0.01%. The “Toxicity as evidenced by weight loss” value ([3]; Exp. 3, 70 mg/Kg) was “detectable toxicity as evidenced by weight loss, but this is still moderate”, the “% Weight Change” value ([3]; Exp. 3, 70 mg/Kg i.p. daily, day 7-13) was 0% and the “% Weight Change” value ([3]; Exp. 3, 70 mg/Kg i.p. daily, day 14-20) was -2%. The “% Weight Change” value ([3]; Exp. 3, 70 mg/Kg i.p. daily, day 21-27) was -3%, the “% Weight Change” value ([3]; Exp. 3, 70 mg/Kg i.p. daily, day 28-34) was -9% and the “Maximum Weight Loss” value ([3]; Table VII, oral 200 mg/Kg, 60 days) was 3%. For the same molecule, the “Weight loss / toxic symptoms” value ([3]; initial single injection 100 mg/Kg, over 7 days) was “no weight loss over 7 days, nor any other toxic symptoms”.
